Tests used:
urease (jack bean) [1] = target: T1, urease (jack bean) (Canavalia ensiformis, UniProt P07374); assay: indophenol urease assay (ammonia production, […] nm); assay type: biochemical
urease (jack bean) [2] = target: T1, urease (jack bean); assay: indophenol urease assay (ammonia production, […] nm), standard inhibitor; assay type: biochemical; conditions: read-out: IC50 ± SEM (μg/mL) (converted)

T1 sequence (P07374 whole entry, looked up): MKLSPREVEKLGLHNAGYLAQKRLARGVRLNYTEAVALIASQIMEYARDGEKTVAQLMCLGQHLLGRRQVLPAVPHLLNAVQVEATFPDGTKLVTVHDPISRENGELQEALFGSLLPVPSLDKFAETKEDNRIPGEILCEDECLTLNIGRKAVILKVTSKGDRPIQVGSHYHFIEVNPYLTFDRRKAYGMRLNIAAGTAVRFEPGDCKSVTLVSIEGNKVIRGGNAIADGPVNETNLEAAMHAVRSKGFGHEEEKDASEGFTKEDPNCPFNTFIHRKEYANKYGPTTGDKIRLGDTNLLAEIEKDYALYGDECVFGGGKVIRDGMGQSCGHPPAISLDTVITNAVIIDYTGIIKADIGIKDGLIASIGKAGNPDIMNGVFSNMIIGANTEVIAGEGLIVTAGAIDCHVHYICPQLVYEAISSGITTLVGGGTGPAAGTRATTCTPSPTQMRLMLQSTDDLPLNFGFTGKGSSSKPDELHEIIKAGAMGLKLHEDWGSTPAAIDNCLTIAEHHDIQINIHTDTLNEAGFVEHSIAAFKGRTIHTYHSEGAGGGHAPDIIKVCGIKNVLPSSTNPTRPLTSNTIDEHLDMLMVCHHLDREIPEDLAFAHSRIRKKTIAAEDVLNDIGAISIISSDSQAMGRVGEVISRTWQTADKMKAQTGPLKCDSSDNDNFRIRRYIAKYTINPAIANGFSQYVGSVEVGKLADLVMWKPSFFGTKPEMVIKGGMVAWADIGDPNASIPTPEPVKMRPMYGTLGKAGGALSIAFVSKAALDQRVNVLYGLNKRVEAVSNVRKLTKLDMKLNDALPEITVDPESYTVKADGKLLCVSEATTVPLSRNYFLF

COc1ccc2cc1Oc1ccc(cc1)C[C@H]1c3cc(c(OC)cc3CCN1C)Oc1c(OC)c(OC)cc3c1[C@H](C2)N(C)CC3 [compound 2, tetrandrine]
IC50 (urease (jack bean) [1]; read-out: IC50 ± SEM (μg/mL) (converted)): 8.85 µM

COc1cc2c3cc1Oc1c(OC)c(OC)cc4c1[C@H](Cc1ccc(cc1)Oc1cc(ccc1O)C[C@H]3N(C)CC2)N(C)CC4 [compound 1, oxyacanthine]
IC50 (urease (jack bean) [1]): 10.4 µM

NC(N)=S [thiourea]
IC50 (urease (jack bean) [2]): 215 µM

Source: PMC5977019, “NMR, Novel Pharmacological and In Silico Docking Studies of Oxyacanthine and Tetrandrine: Bisbenzylisoquinoline Alkaloids Isolated from Berberis glaucocarpa Roots” (Journal of Analytical Methods in Chemistry, 2018)
